Each structure is given as a SMILES string.

One experiment deals with T1, Calcitonin receptor (Homo sapiens, UniProt P30988).
T1 sequence (P30988 whole entry): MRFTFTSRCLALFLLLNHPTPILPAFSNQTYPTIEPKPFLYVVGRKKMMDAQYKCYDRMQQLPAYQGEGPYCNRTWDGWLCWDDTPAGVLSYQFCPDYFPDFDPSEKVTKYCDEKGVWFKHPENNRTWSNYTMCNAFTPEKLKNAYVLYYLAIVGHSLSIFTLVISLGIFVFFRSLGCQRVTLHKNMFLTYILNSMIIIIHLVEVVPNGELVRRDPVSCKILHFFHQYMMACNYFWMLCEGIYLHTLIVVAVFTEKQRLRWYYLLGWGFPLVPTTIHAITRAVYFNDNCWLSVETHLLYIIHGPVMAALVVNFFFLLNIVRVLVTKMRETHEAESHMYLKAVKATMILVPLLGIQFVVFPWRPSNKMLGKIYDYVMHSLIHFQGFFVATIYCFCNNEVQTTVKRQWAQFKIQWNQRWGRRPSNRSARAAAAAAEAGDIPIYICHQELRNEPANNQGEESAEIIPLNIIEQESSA
The experiment is classed as cell membranes, Membrane. To be noted: t47d.

The nature of experiment [1]: DRUGMATRIX: Glutamate, Kainate radioligand binding (ligand: [3H] Kainic acid). To be noted: Not Active = under 50% inhibition at 10 µM. The experiment is classed as cell membranes, Rattus norvegicus, Wistar, Brain, Membrane.
The next experiment deals with T2, Interstitial collagenase (Homo sapiens, UniProt P03956).
T2 sequence (P03956 whole entry): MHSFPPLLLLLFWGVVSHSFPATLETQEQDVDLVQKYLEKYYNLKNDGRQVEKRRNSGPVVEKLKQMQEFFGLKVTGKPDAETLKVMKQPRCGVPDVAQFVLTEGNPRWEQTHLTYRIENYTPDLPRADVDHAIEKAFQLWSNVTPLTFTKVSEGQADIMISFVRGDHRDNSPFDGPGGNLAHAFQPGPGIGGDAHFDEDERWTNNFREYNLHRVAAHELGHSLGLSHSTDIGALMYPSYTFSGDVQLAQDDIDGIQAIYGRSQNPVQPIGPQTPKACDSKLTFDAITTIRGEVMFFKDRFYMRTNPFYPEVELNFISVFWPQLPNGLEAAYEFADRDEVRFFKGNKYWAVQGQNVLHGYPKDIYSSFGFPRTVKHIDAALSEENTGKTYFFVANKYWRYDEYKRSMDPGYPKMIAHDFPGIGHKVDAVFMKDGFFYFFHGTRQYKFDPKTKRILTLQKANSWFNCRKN
The experiment is classed as tissue-based, Rheumatoid synovial fibroblasts.

The nature of experiment [2]: DRUGMATRIX: Sigma2 radioligand binding (ligand: [3H] Ifenprodil). The experiment is classed as cell membranes, Rattus norvegicus, Wistar, Brain, Membrane. To be noted: Not Active = under 50% inhibition at 10 µM.
The target in experiment [3] is T3, Alpha-2C adrenergic receptor (Homo sapiens, UniProt P18825).
T3 sequence (P18825 whole entry): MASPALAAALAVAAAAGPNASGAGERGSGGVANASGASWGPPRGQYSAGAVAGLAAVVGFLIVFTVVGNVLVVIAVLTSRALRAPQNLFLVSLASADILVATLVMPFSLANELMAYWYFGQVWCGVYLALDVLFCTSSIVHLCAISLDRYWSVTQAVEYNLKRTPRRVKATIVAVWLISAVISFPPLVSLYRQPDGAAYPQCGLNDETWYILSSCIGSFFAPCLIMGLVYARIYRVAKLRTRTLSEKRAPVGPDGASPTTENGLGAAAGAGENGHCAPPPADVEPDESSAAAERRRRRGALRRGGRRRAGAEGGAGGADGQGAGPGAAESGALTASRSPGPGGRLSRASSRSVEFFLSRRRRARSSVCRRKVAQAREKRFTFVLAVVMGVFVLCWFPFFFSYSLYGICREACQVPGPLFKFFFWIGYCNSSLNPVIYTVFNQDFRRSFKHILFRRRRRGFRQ
As to the kind of experiment: DRUGMATRIX: Adrenergic Alpha-2C radioligand binding (ligand: [3H] MK-912). The experiment is classed as cell membranes, Sf9, Membrane.

For experiment [4], the target named is Receptor tyrosine-protein kinase erbB-2 (Homo sapiens, UniProt P04626). As to the kind of experiment: biochemical. The experiment is classed as cell-based, Insect cells. To be noted: insect cells.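 Note: inhibition of HER2 kinase enzyme activity, measured with Poly(Glu:Tyr) as the phosphorylation substrate; in other assays of this panel Not Active means under 50% inhibition at 10 µM.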
Chain of Receptor tyrosine-protein kinase erbB-2 (P04626 whole entry): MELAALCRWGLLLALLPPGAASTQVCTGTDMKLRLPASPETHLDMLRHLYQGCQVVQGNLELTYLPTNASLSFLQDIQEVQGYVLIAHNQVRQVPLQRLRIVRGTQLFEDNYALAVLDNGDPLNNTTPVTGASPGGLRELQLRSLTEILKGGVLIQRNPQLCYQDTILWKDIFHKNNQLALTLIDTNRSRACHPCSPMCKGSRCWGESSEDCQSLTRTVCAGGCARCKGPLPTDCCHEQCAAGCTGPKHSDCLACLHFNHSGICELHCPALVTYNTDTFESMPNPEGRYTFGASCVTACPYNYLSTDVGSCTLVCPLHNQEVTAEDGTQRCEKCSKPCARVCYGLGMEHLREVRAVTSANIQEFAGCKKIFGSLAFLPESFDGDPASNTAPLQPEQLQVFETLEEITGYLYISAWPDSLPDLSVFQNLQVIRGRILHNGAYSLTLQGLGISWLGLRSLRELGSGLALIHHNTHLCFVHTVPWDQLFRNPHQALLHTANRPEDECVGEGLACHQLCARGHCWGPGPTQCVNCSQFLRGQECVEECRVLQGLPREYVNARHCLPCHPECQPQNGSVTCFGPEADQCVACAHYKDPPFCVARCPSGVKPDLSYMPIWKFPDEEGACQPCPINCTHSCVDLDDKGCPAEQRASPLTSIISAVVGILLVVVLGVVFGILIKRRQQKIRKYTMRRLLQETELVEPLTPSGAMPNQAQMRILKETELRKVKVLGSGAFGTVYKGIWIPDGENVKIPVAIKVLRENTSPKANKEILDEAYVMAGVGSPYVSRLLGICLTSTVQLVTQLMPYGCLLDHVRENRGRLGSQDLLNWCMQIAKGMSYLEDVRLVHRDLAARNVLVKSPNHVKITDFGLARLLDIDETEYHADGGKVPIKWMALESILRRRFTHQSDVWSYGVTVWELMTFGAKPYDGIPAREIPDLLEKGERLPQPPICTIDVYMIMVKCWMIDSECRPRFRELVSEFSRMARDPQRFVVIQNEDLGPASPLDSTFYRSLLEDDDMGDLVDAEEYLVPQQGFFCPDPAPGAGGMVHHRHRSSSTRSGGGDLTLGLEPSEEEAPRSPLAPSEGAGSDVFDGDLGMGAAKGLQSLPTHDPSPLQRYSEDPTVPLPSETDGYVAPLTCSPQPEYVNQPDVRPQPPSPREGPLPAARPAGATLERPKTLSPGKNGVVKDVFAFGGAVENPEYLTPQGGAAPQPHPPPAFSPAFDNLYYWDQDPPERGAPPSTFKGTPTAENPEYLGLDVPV

What is called IC50 is the concentration that gives 50% inhibition. Usually Ki stands for the dissociation constant of the complex between target and ligand, obtained from inhibition or displacement. Regarding `CC[C@H]1OC(=O)[C@H](C)[C@@H](O[C@H]2C[C@@](C)(OC)[C@@H](O)[C@H](C)O2)[C@H](C)[C@@H](O[C@@H]2O[C@H](C)C[C@H](N(C)C)[C@H]2O)[C@](C)(OC)C[C@@H](C)C(=O)[C@H](C)[C@@H](O)[C@]1(C)O` [CLARITHROMYCIN], the IC50 entry (on Calcitonin receptor; in experiment [1]; on Interstitial collagenase; in experiment [2]; in experiment [3] (sf9); in experiment [4]) was “Not Active” in each case. For the same compound, the inhibitory constant (Ki) result in experiment [1] and in experiment [2] was “Not Active” throughout.

For the compound `CCC[C@@H]1C[C@@H](C(=O)N[C@@H]([C@H]2O[C@H](SC)[C@H](O)[C@@H](O)[C@H]2O)[C@H](C)Cl)N(C)C1` [CLINDAMYCIN], the IC50 entry (at Calcitonin receptor; in experiment [1]; against Interstitial collagenase; in experiment [2]; in experiment [3] (sf9); in experiment [4]) was “Not Active” each time. In addition, the Ki entry in experiment [1] and in experiment [2] was “Not Active” each time.

In the case of `O=C(O)c1cc(=O)c2c(OCC(O)COc3cccc4oc(C(=O)O)cc(=O)c34)cccc2o1` [CROMOLYN], the 50% inhibitory concentration (IC50) entry (at Calcitonin receptor; in experiment [1]; against Interstitial collagenase; in experiment [2]; in experiment [3] (sf9); in experiment [4]) was “Not Active” throughout. The Ki entry in experiment [1] and in experiment [2] was “Not Active” each time.

For the compound `O=P1(N(CCCl)CCCl)NCCCO1` (stereo not given) [CYCLOPHOSPHAMIDE ANHYDROUS], the IC50 result (at Calcitonin receptor; in experiment [1]; on Interstitial collagenase; in experiment [2]; in experiment [3] (sf9); in experiment [4]) was “Not Active” in each case. In addition, the Ki result in experiment [1] and in experiment [2] was “Not Active” throughout.

Take `CC(=O)O[C@]1(C(C)=O)CC[C@H]2[C@@H]3C=C(Cl)C4=CC(=O)[C@@H]5C[C@@H]5[C@]4(C)[C@H]3CC[C@@]21C` [CYPROTERONE ACETATE]: the IC50 entry (on Calcitonin receptor; in experiment [1]; on Interstitial collagenase; in experiment [2]; in experiment [3] (sf9); in experiment [4]) was “Not Active” in each case. For the same compound, the inhibitory constant (Ki) result in experiment [1] and in experiment [2] was “Not Active” each time.

For `Nc1nc(N)nc(NC2CC2)n1` [CYROMAZINE], the IC50 entry (at Calcitonin receptor; in experiment [1]; at Interstitial collagenase; in experiment [2]; in experiment [3] (sf9); in experiment [4]) was “Not Active” throughout. The inhibition constant (Ki) result in experiment [1] and in experiment [2] was “Not Active” each time.

As to `C#C[C@]1(O)CC[C@H]2[C@@H]3CCC4=Cc5oncc5C[C@]4(C)[C@H]3CC[C@@]21C` [DANAZOL], the IC50 result at Calcitonin receptor is “Not Active”; in experiment [1], “Not Active”; at Interstitial collagenase, “Not Active”; in experiment [2], “Not Active”; in experiment [3] (read-out: IC50), 23.8 µM; in experiment [4] it was “Not Active”. For the same compound, the inhibitory constant (Ki) entry in experiment [1] was “Not Active”; in experiment [2], “Not Active”; in experiment [3] (read-out: Ki), 3.45 µM.

Consider `CCN[C@@H](C)Cc1cccc(C(F)(F)F)c1` [DEXFENFLURAMINE], for which the IC50 result (on Calcitonin receptor; in experiment [1]; on Interstitial collagenase; in experiment [2]; in experiment [3] (sf9); in experiment [4]) was “Not Active” throughout. Also, the Ki entry in experiment [1] and in experiment [2] was “Not Active” each time.

As for `C[C@H](C(=O)O)c1cccc(C(=O)c2ccccc2)c1` [DEXKETOPROFEN], the half-inhibitory concentration (IC50) result (at Calcitonin receptor; in experiment [1]; against Interstitial collagenase; in experiment [2]; in experiment [3] (sf9); in experiment [4]) was “Not Active” throughout. For the same compound, the Ki entry in experiment [1] and in experiment [2] was “Not Active” throughout.

For `CN1C(=O)CN=C(c2ccccc2)c2cc(Cl)ccc21` [DIAZEPAM], the IC50 entry (on Calcitonin receptor; in experiment [1]; at Interstitial collagenase; in experiment [2]; in experiment [3] (sf9); in experiment [4]) was “Not Active” throughout. In addition, the Ki entry in experiment [1] and in experiment [2] was “Not Active” throughout.

Turning to `Cc1c(N(C)CS(=O)(=O)[O-])c(=O)n(-c2ccccc2)n1C.[Na+]` [DIPYRONE SODIUM], the IC50 result (on Calcitonin receptor; in experiment [1]; against Interstitial collagenase; in experiment [2]; in experiment [3] (sf9); in experiment [4]) was “Not Active” each time. Besides, the inhibition constant Ki entry in experiment [1] and in experiment [2] was “Not Active” each time.

With `CC(CCc1ccc(O)cc1)NCCc1ccc(O)c(O)c1` (stereo not given) [DOBUTAMINE], the 50% inhibitory concentration (IC50) result is “Not Active” on Calcitonin receptor; “Not Active” in experiment [1]; “Not Active” on Interstitial collagenase; 2.6 µM in experiment [2] (read-out: IC50); “Not Active” in experiment [3] (sf9); “Not Active” in experiment [4]. For the same compound, the inhibition constant Ki entry in experiment [1] was “Not Active”; in experiment [2] (read-out: Ki) it was 1.6 µM.

For the compound `CCn1cc(C(=O)O)c(=O)c2cc(F)c(N3CCNCC3)nc21` [ENOXACIN], the half-maximal inhibitory concentration (IC50) result (on Calcitonin receptor; in experiment [1]; at Interstitial collagenase; in experiment [2]; in experiment [3] (sf9); in experiment [4]) was “Not Active” throughout. In addition, the inhibitory constant (Ki) entry in experiment [1] and in experiment [2] was “Not Active” each time.

Consider `CCC(=O)O[C@H]1[C@H](O[C@@H]2[C@@H](C)[C@H](O[C@H]3C[C@@](C)(OC)[C@@H](O)[C@H](C)O3)[C@@H](C)C(=O)O[C@H](CC)[C@@](C)(O)[C@H](O)[C@@H](C)C(=O)[C@H](C)C[C@@]2(C)O)O[C@H](C)C[C@@H]1N(C)C` [ERYTHROMYCIN PROPIONATE], for which the IC50 entry (at Calcitonin receptor; in experiment [1]; against Interstitial collagenase; in experiment [2]; in experiment [3] (sf9); in experiment [4]) was “Not Active” in each case. The Ki entry in experiment [1] and in experiment [2] was “Not Active” in each case.

`C=C(CC)C(=O)c1ccc(OCC(=O)O)c(Cl)c1Cl` [ETHACRYNIC ACID]: the IC50 entry (on Calcitonin receptor; in experiment [1]; against Interstitial collagenase; in experiment [2]; in experiment [3] (sf9); in experiment [4]) was “Not Active” in each case. For the same compound, the inhibitory constant (Ki) entry in experiment [1] and in experiment [2] was “Not Active” throughout.

On to `C#C[C@]1(O)CC[C@H]2[C@@H]3CCc4cc(O)ccc4[C@H]3CC[C@@]21C` [ETHINYL ESTRADIOL], for which the concentration for half-maximal inhibition (IC50) result (on Calcitonin receptor; in experiment [1]; against Interstitial collagenase; in experiment [2]; in experiment [3] (sf9); in experiment [4]) was “Not Active” throughout. In addition, the Ki entry in experiment [1] and in experiment [2] was “Not Active” each time.

Consider `OCCO` [ETHYLENE GLYCOL], for which the half-maximal inhibitory concentration (IC50) entry (on Calcitonin receptor; in experiment [1]; against Interstitial collagenase; in experiment [2]; in experiment [3] (sf9); in experiment [4]) was “Not Active” throughout. Besides, the Ki entry in experiment [1] and in experiment [2] was “Not Active” each time.

Consider `CC(=O)OCC(CCn1cnc2cnc(N)nc21)COC(C)=O` [FAMCICLOVIR], for which the IC50 entry (at Calcitonin receptor; in experiment [1]; on Interstitial collagenase; in experiment [2]; in experiment [3] (sf9); in experiment [4]) was “Not Active” each time. In addition, the Ki entry in experiment [1] and in experiment [2] was “Not Active” throughout.

Source of the values: ChEMBL document CHEMBL1909046, “DrugMatrix in vitro pharmacology data”.
